Measurements published in ChEMBL document CHEMBL6127085, “Design, synthesis and evaluation of novel LpxC inhibitors containing a hydrazone moiety as Gram-negative antibacterial agents” (Eur J Med Chem, 2024).
Converted amounts (≈) assume the structure as drawn. Values belong to the molecule of their own block, whether it stands above or below them.

Experiments:
[1] = tested on: Pseudomonas aeruginosa; assay: Antibacterial activity against Pseudomonas aeruginosa clinical isolate PAE22-1 assessed as reduction in bacterial growth measured after 18 to 24 hrs by CLSI protocol based method; assay type: functional; conditions: time 18-24 hrs
[2] = tested on: Klebsiella pneumoniae; assay: Antibacterial activity against Klebsiella pneumoniae ATCC700603 assessed as reduction in bacterial growth measured after 18 to 24 hrs by CLSI protocol based method; assay type: functional; conditions: time 18-24 hrs
[3] = tested on: Escherichia coli; assay: Antibacterial activity against Escherichia coli ATCC25922 assessed as reduction in bacterial growth measured after 18 to 24 hrs by CLSI protocol based method; assay type: functional; conditions: time 18-24 hrs
[4] = tested on: Pseudomonas aeruginosa; assay: Antibacterial activity against Pseudomonas aeruginosa ATCC27853 assessed as reduction in bacterial growth measured after 18 to 24 hrs by CLSI protocol based method; assay type: functional; conditions: time 18-24 hrs
[5] = tested on: Klebsiella pneumoniae; assay: Antibacterial activity against Klebsiella pneumoniae clinical isolate KPN+22-1 assessed as reduction in bacterial growth measured after 18 to 24 hrs by CLSI protocol based method; assay type: functional; conditions: time 18-24 hrs
[6] = Metabolic stability in rat liver microsomes assessed as half life at 1 uM preincubated for 5 mins followed by NADPH addition and measured after 5 to 60 mins by LC-MS analysis; assay type: ADME, Microsome; conditions: liver microsomes, time 10-65 min
[7] = Metabolic stability in rat liver microsomes assessed as intrinsic clearance at 1 uM preincubated for 5 mins followed by NADPH addition and measured after 5 to 60 mins by LC-MS analysis; assay type: ADME, Microsome; conditions: liver microsomes, time 10-65 min, read-out: CLH
[8] = Tmax in male Sprague-Dawley rat at 10 mg/kg, IG measured upto 24 hrs by LC-MS analysis; assay type: ADME, organism-based; conditions: in vivo, po
[9] = Half life in male Sprague-Dawley rat at 10 mg/kg, IG measured upto 24 hrs by LC-MS analysis; assay type: ADME, organism-based; conditions: in vivo, po
[10] = Oral bioavailability in male Sprague-Dawley rat at 10 mg/kg, IG measured upto 24 hrs by LC-MS analysis; assay type: ADME, organism-based; conditions: in vivo
[11] = Plasma protein binding in human assessed as drug recovery at 1 uM incubated for 6 hrs by LC-MS/MS analysis; assay type: ADME, cell-free; conditions: read-out: Drug recovery
[12] = MRT (0 to t) in male Sprague-Dawley rat at 10 mg/kg, IG measured upto 24 hrs by LC-MS analysis; assay type: ADME, organism-based; conditions: in vivo, po
[13] = MRT (0 to t) in male Sprague-Dawley rat at 1 mg/kg, iv measured upto 24 hrs by LC-MS analysis; assay type: ADME, organism-based; conditions: in vivo
[14] = Clearance in male Sprague-Dawley rat at 1 mg/kg, iv measured upto 24 hrs by LC-MS analysis; assay type: ADME, organism-based; conditions: in vivo
[15] = Metabolic stability in mouse liver microsomes assessed as half life at 1 uM preincubated for 5 mins followed by NADPH addition and measured after 5 to 60 mins by LC-MS analysis; assay type: ADME, Microsome; conditions: liver microsomes, time 10-65 min
[16] = AUC (0 to t) in male Sprague-Dawley rat at 1 mg/kg, iv measured upto 24 hrs by LC-MS analysis; assay type: ADME, organism-based; conditions: in vivo
[17] = Intrinsic clearance in mouse; assay type: ADME, organism-based; conditions: read-out: CLH
[18] = Half life in male Sprague-Dawley rat at 1 mg/kg, iv measured upto 24 hrs by LC-MS analysis; assay type: ADME, organism-based; conditions: in vivo
[19] = AUC (0 to t) in male Sprague-Dawley rat at 10 mg/kg, IG measured upto 24 hrs by LC-MS analysis; assay type: ADME, organism-based; conditions: in vivo, po
[20] = Volume of distribution at steady state in male Sprague-Dawley rat at 1 mg/kg, iv measured upto 24 hrs by LC-MS analysis; assay type: ADME, organism-based; conditions: in vivo, read-out: Vdss
[21] = tested on: HepG2; assay: Cytotoxicity against human HepG2 cells assessed as inhibition of cell growth measured after 48 hrs by MTT assay; assay type: functional, cell-based; conditions: HepG2, 48 h
[22] = Intrinsic clearance in human; assay type: ADME; conditions: read-out: CLH
[23] = Stability in human plasma at 1 uM incubated for 6 hrs by LC-MS/MS analysis; assay type: ADME, cell-free; conditions: read-out: Stability
[24] = Metabolic stability in human liver microsomes assessed as intrinsic clearance at 1 uM preincubated for 5 mins followed by NADPH addition and measured after 5 to 60 mins by LC-MS analysis; assay type: ADME, Microsome; conditions: time 10-65 min, read-out: CLH
[25] = Stability in mouse plasma at 1 uM incubated for 6 hrs by LC-MS/MS analysis; assay type: ADME, cell-free; conditions: read-out: Stability
[26] = Plasma protein binding in rat assessed as drug recovery at 1 uM incubated for 6 hrs by LC-MS/MS analysis; assay type: ADME, cell-free; conditions: read-out: Drug recovery
[27] = Plasma protein binding in mouse assessed as drug recovery at 1 uM incubated for 6 hrs by LC-MS/MS analysis; assay type: ADME, cell-free; conditions: read-out: Drug recovery
[28] = Stability in rat plasma at 1 uM incubated for 6 hrs by LC-MS/MS analysis; assay type: ADME, cell-free; conditions: read-out: Stability
[29] = Cmax in male Sprague-Dawley rat at 10 mg/kg, IG measured upto 24 hrs by LC-MS analysis; assay type: ADME, organism-based; conditions: in vivo, po
[30] = Metabolic stability in human liver microsomes assessed as half life at 1 uM preincubated for 5 mins followed by NADPH addition and measured after 5 to 60 mins by LC-MS analysis; assay type: ADME, Microsome; conditions: liver microsomes, time 10-65 min
[31] = Metabolic stability in mouse liver microsomes assessed as intrinsic clearance at 1 uM preincubated for 5 mins followed by NADPH addition and measured after 5 to 60 mins by LC-MS analysis; assay type: ADME, Microsome; conditions: liver microsomes, time 10-65 min, read-out: CLH
[32] = Intrinsic clearance in rat; assay type: ADME; conditions: read-out: CLH

SMILES: C[C@@H](O)[C@H](NC(=O)c1ccc(C#Cc2ccc(/C=N/N3CCNCC3)cc2)cc1)C(=O)NO
MIC [1]: > 64 µg/mL | MIC [2]: > 64 µg/mL | MIC [3]: 4 µg/mL (≈ 8.9 µM) | MIC [4]: > 64 µg/mL | MIC [5]: > 64 µg/mL

SMILES: O=C(NO)C1CN(c2ccc(C#Cc3ccc(/C=N/N4CCCC4)cc3)cc2)C(=O)O1 (stereo not drawn)
MIC [1]: > 64 µg/mL | MIC [3]: > 64 µg/mL | MIC [5]: > 64 µg/mL

SMILES: C[C@@H](O)[C@H](NC(=O)c1ccc(C#Cc2ccc(CN3CCOCC3)cc2)cc1)C(=O)NO
half-life at 1 µM [6]: 0.362 h | microsomal CLint at 1 µM [7]: 64 µL/min/mg | Tmax [8]: 0.25 h | half-life [9]: 1.12 h | bioavailability [10]: 10.6% | recovery at 6 h, 1 µM [11]: 101% | MRT last at 24 h [12]: 1.09 h | MRT last at 24 h [13]: 0.24 h | clearance [14]: 66.7 mL/min/kg | half-life at 1 µM [15]: 1.23 h | AUC(0-t) at 24 h [16]: 249 ng·h/mL | CLint scaled [17]: 74.2 mL/min/kg | half-life [18]: 0.29 h | AUC(0-t) at 24 h [19]: 243 ng·h/mL | Vd [20]: 0.98 L/kg | IC50 [21]: > 30 µM | MIC [1]: 2 µg/mL (≈ 4.57 µM) | MIC [2]: 8 µg/mL (≈ 18.3 µM) | CLint scaled [22]: 1.3 mL/min/kg | remaining at 6 h, 1 µM [23]: 106% | MIC [3]: 0.5 µg/mL (≈ 1.14 µM) | microsomal CLint at 1 µM [24]: 1.38 µL/min/mg | MIC [4]: 4 µg/mL (≈ 9.14 µM) | remaining at 6 h, 1 µM [25]: 93.2% | MIC [5]: 1 µg/mL (≈ 2.29 µM) | recovery at 6 h, 1 µM [26]: 91.7% | recovery at 6 h, 1 µM [27]: 98.6% | remaining at 6 h, 1 µM [28]: 94.5% | Cmax [29]: 262 ng/mL | half-life at 1 µM [30]: 16.8 h | microsomal CLint at 1 µM [31]: 18.8 µL/min/mg | CLint scaled [32]: 115 mL/min/kg

SMILES: C[C@@H](O)[C@H](NC(=O)c1ccc(C#Cc2ccc(/C=N/N3CCN(C(=O)C(C)(C)C)CC3)nc2)cc1)C(=O)NO
MIC [1]: 16 µg/mL (≈ 29.9 µM) | MIC [2]: > 64 µg/mL | MIC [3]: 4 µg/mL (≈ 7.48 µM) | MIC [4]: 16 µg/mL (≈ 29.9 µM) | MIC [5]: 16 µg/mL (≈ 29.9 µM)

SMILES: C[C@@H](O)[C@H](NC(=O)c1ccc(C#Cc2ccc(/C=N/N3CCOCC3)nc2)cc1)C(=O)NO
MIC [1]: 2 µg/mL (≈ 4.43 µM) | MIC [3]: 4 µg/mL (≈ 8.86 µM) | MIC [4]: 16 µg/mL (≈ 35.4 µM) | MIC [5]: 16 µg/mL (≈ 35.4 µM)

SMILES: C[C@@H](O)[C@H](NC(=O)c1ccc(C#Cc2ccc(/C=N/N3CCN(C(=O)OC(C)(C)C)CC3)cc2)cc1)C(=O)NO
MIC [1]: 16 µg/mL (≈ 29.1 µM) | MIC [2]: > 64 µg/mL | MIC [3]: 1 µg/mL (≈ 1.82 µM) | MIC [4]: > 64 µg/mL | MIC [5]: 8 µg/mL (≈ 14.6 µM)

Results, then the molecule that gave them:

MIC [1]: 2 µg/mL (≈ 4.31 µM) | MIC [2]: 8 µg/mL (≈ 17.3 µM) | MIC [3]: 1 µg/mL (≈ 2.16 µM) | MIC [4]: 2 µg/mL (≈ 4.31 µM) | MIC [5]: 2 µg/mL (≈ 4.31 µM)
SMILES: C[C@@H](O)[C@H](NC(=O)c1ccc(C#Cc2ccc(/C=N/N3CCN(C)CC3)cc2)cc1)C(=O)NO

MIC [1]: 4 µg/mL (≈ 8.02 µM) | MIC [2]: 16 µg/mL (≈ 32.1 µM) | MIC [3]: 1 µg/mL (≈ 2.01 µM) | MIC [4]: 4 µg/mL (≈ 8.02 µM) | MIC [5]: 4 µg/mL (≈ 8.02 µM)
SMILES: C[C@@H](O)[C@H](NC(=O)c1ccc(C#Cc2ccc(/C=N/N3CCS(=O)(=O)CC3)cc2)cc1)C(=O)NO

MIC [1]: 4 µg/mL (≈ 8.92 µM) | MIC [2]: 32 µg/mL (≈ 71.3 µM) | MIC [3]: 0.25 µg/mL (≈ 0.557 µM) | MIC [4]: 32 µg/mL (≈ 71.3 µM) | MIC [5]: 1 µg/mL (≈ 2.23 µM)
SMILES: C[C@@H](O)[C@H](NC(=O)c1ccc(C#Cc2ccc(/C=N/N3CCCCC3)cc2)cc1)C(=O)NO

MIC [1]: > 64 µg/mL | MIC [2]: > 64 µg/mL | MIC [3]: 0.5 µg/mL (≈ 0.948 µM) | MIC [4]: > 64 µg/mL | MIC [5]: > 64 µg/mL
SMILES: C[C@@H](O)[C@H](NC(=O)c1ccc(C#Cc2ccc(/C=N/N3CCN(S(C)(=O)=O)CC3)cc2)cc1)C(=O)NO

MIC [1]: 2 µg/mL (≈ 4.07 µM) | MIC [2]: > 64 µg/mL | MIC [3]: 0.5 µg/mL (≈ 1.02 µM) | MIC [4]: > 64 µg/mL | MIC [5]: 2 µg/mL (≈ 4.07 µM)
SMILES: CC(=O)N1CCN(/N=C/c2ccc(C#Cc3ccc(C(=O)N[C@H](C(=O)NO)[C@@H](C)O)cc3)cc2)CC1

MIC [1]: 8 µg/mL (≈ 16.4 µM) | MIC [2]: 32 µg/mL (≈ 65.6 µM) | MIC [3]: 0.03 µg/mL (≈ 0.0615 µM) | MIC [4]: 2 µg/mL (≈ 4.1 µM) | MIC [5]: 2 µg/mL (≈ 4.1 µM)
SMILES: C#CCN1CCN(/N=C/c2ccc(C#Cc3ccc(C(=O)N[C@H](C(=O)NO)[C@@H](C)O)cc3)cc2)CC1

half-life at 1 µM [6]: 3.5 h | microsomal CLint at 1 µM [7]: 6.7 µL/min/mg | half-life at 1 µM [15]: 3.37 h | CLint scaled [17]: 28.5 mL/min/kg | MIC [1]: 4 µg/mL (≈ 7.91 µM) | MIC [2]: 16 µg/mL (≈ 31.6 µM) | CLint scaled [22]: 4.26 mL/min/kg | MIC [3]: 0.03 µg/mL (≈ 0.0593 µM) | microsomal CLint at 1 µM [24]: 4.51 µL/min/mg | MIC [4]: 4 µg/mL (≈ 7.91 µM) | MIC [5]: 2 µg/mL (≈ 3.96 µM) | half-life at 1 µM [30]: 5.15 h | microsomal CLint at 1 µM [31]: 7.23 µL/min/mg | CLint scaled [32]: 12.1 mL/min/kg
SMILES: CCC(=O)N1CCN(/N=C/c2ccc(C#Cc3ccc(C(=O)N[C@H](C(=O)NO)[C@@H](C)O)cc3)cc2)CC1
